# In US20250049914A1, “STEROID ACID-PEPTIDE BASED INTRACELLULAR CARGO DELIVERY” (DEFENCE THERAPEUTICS INC., priority 2021, published 2025):
# Where no end group is shown, it is not given here.
# Columns and labels:
# [1] = system: cross-presenting mesenchymal stromal cell line (cpMSC); assay: Antigen-presentation assay using the B3Z reporter system, cross-presenting MSC line; assay type: cell-based; settings: cpMSCs, OVA admixed, vs OVA alone or OVA mixed with CA-SV40NLS
# Procedure: (§1) Various bile acid-NLS conjugates were screened using the B3Z reporter system. The B3Z cell line is a T-cell hybridoma specific for the H2-K^b-[…] complex. Once activated via its TCR, the LacZ reporter gene (under the NFAT promoter control) is expressed. Briefly, 1.5×10^5 BMDCs or 2.5×10^5 MSCs were co-cultured with 5×10^4 B3Z cells treated with the mixing conditions of ovalbumin (OVA) and bile acid-NLS conjugates for overnight at 37° C. with 5% CO2. The following day, all cells were washed twice with PBS (pH 7.4), and the cell pellets were lysed by adding 100 μL of a lysis buffer containing 0.15 mM chlorophenol red-beta-D-galactopyranoside (CPRG) substrate (Calbiochem, La Jolla, CA), 0.125% NP40 (EMD Sciences, La Jolla, CA), 9 mM MgCl2 (Aldrich, USA) and 100 mM 2-mercaptoethanol in PBS. After a 5- or 24-h incubation at 37° C., absorbance was taken at 570 nm with 636 nm as the reference wavelength. For these experiments, OVA was re-suspended in PBS (pH 7.3) at 5-10 mg/mL. The different bile acid-NLS conjugates were re-suspended in H2O at 10 mg/mL. Bile acid-NLS conjugate: antigen mixtures were prepared at different molar ratios according to Table 1.
# (§2) Further variants of CA-SV40NLS were synthesized in which the SV40NLS peptide was replaced with peptides comprising other NLS's (Table 5) and the antigen presentation activities of the CA-NLS peptide conjugates were evaluated using the B3Z reporter system as described in Example 1. The following conjugate: antigen molar ratios were tested for each conjugate: 2:1, 4:1, 8:1, 12:1 and 22:1. The results in FIGS. 12-15 compare the antigen presentation activities of different conjugates at the conjugate: antigen ratio that yielded the highest B3Z response (OD570) for that conjugate.
# BMDCs = assay: Antigen-presentation assay using the B3Z reporter system, BMDCs; assay type: cell-based, mouse; settings: BMDCs, OVA admixed, best conjugate: antigen ratio
# Procedure: Mouse bone marrow derived DCs (BMDCs) were generated by flushing the whole marrow from mouse femurs using RPMI™ 1640 supplemented with 10% fetal bovine serum (FBS), 50 U/mL Penicillin-Streptomycin, 2 mM L-glutamine, 10 mM HEPES, 1% MEM Non-essential Amino Acids, 1 mM Sodium Pyruvate, 0.5 mM beta-mercaptoethanol. Following red blood cell lysis, cells were then cultured in media supplemented with 50 ng/mL murine recombinant GM-CSF. The media was changed on days 2, 4, 6 and 8. On day 9, the media was replaced to include recombinant murine GM-CSF and LPS from Escherichia coli 0111 (1 ng/mL) to stimulate DC maturation. Mature DCs were assessed by flow cytometry for their surface expression of CD3, CD19, NK1.1, CD11c, CD80, CD86, and I-A^b.
# as §1
# Variants of CA-SV40NLS were synthesized in order to explore structure-activity relationships relating to the antigen cross-presentation enhancing activity observed for this conjugate, and therefore a measure of antigen/cargo delivery. More particularly, conjugates having different bile acids conjugated to the SV40NLS peptide (SEQ ID NO: 1) were synthesized and their effect on antigen presentation was evaluated by using the B3Z reporter system with the OVA antigen as described in Example 1. […] In FIG. 11, no increase in antigen cross-presentation in BMDCs over the antigen alone (“OVA”) was observed when OVA was mixed with either unconjugated cholic acid (“CA”) or SV40NLS peptide (“SV40NLS”), although lower sensitivity of the B3Z reporter system as compared to the OT-I CD8 T cell-based assay may have been a factor.
# as §2
# JIMT-1 cells = assay: Cas9-GFP delivery with Lipofectamine CRISPRMAX transfection reagent; assay type: cell-based
# Procedure: To assess whether the enhanced intracellular delivery conferred by bile acid-NLS moieties is compatible with other delivery technologies, a delivery experiment in JIMT-1 cells was performed using Lipofectamine™ CRISPRMAX™ Cas9 Transfection Reagent (Thermo Fisher Scientific) according to the manufacturer's protocol, except that the cargo was Cas9-GFP alone or conjugated to/mixed with different bile acid-NLS moieties. The results are shown in Table 3 with GFP fluorescence values being normalized to that of cells incubated with the unconjugated cargo/transfection reagent alone (Cas9-GFP alone). […] Fluorescence microscopy experiments in live cells confirmed that the Cas9-GFP cargoes were successfully delivered to the nucleus of JIMT-1 cells (data not shown).
substance,measurement,setting,value
"CA-HuR: cholic acid conjugated to HuR NLS peptide CGRFSPMGVDHMSGLSGVNVPG (SEQ ID NO: 13) (not fully specified (N-terminus); also: cholic acid conjugate, site not given here)",antigen-presentation activity of cholic acid-NLS peptide conjugates (B3Z response),[1],strikingly high antigen-presentation activity
same,antigen-presentation activity of cholic acid-NLS peptide conjugates (B3Z response),BMDCs,high antigen presentation activity
same,increase in intracellular Cas9-GFP delivery vs Cas9-GFP/transfection reagent alone,JIMT-1 cells,17 fold
